Laboratory results published in ChEMBL document CHEMBL1133832, “Synthesis of the first example of a C2-C3/C2'-C3'-endo unsaturated pyrrolo[2,1-c][1,4]benzodiazepine dimer” (Bioorg Med Chem Lett, 2001).

How the values were obtained:
[1] = Resistance factor (IC50 resistant/ parent); assay type: functional
A2780 [2] = test: Dose of required to inhibit growth of human ovarian carcinoma (A2780) cell line with compound free controls as measured by the sulforhodamine B growth delay assay; assay type: functional, cell-based
A2780 [3] = test: Dose of required to inhibit growth of cisplatin resistant human ovarian carcinoma (A2780 cisR) cell line with compound free controls as measured by the sulforhodamine B growth delay assay; assay type: functional, cell-based

| Compound | RF [1] | IC50 (A2780 [2]) [nM] | IC50 (A2780 [3]) [nM] |
| --- | --- | --- | --- |
| COc1cc2c(cc1OCCCOc1cc3c(cc1OC)C(=O)N1CCC[C@H]1C=N3)N=C[C@@H]1CCCN1C2=O | 29.2 |  |  |
| C=C1C[C@H]2C=Nc3cc(OCCCOc4cc5c(cc4OC)C(=O)N4CC(=C)C[C@H]4C=N5)c(OC)cc3C(=O)N2C1 [SJG-136] | 1 | 0.0225 | 0.024 |
| COC(=O)CC1=CN2C(=O)c3cc(OC)c(OCCCOc4cc5c(cc4OC)C(=O)N4C=C(CC(=O)OC)C[C@H]4C=N5)cc3N=C[C@@H]2C1 | 10.7 | 5.4 | 58 |
